Values belong to the compound of their own block, whether it stands above or below them.
What was measured:
[1] = solubility in aqueous solutions; assay type: physicochemical
From the text: Despite the apparent efficacy of PX compounds in treating various disease conditions, their use is limited due to a problem of extremely low solubility. […] This very poor solubility generally leads to insufficient bioavailability alter administration, likely because the dissolution velocity is too slow.

[2] = particle size after high pressure homogenization (photon correlation spectroscopy); assay type: physicochemical
Procedure: PX-18 powder was dispersed in a 1% Tween 80 carrier. The composition of the formulation was 1% PX-18, 1% Tween 80 and 98% water. The obtained macrosuspension was passed through a micron LAB 40 homogenizer (APV Homogenizer Systems, Unna/Germany) at 1500 bar, applying one homogenization cycle. The particle size was determined by photon correlation spectroscopy (PCS, Malvern Zetasizer Nano ZS, Malvern Instruments, United Kingdom), The mean particle size (z-average) was 745 nm.
A second macrosuspension of PX-18 was prepared as described above, and subsequently homogenized. The homogenization parameters were 1500 bar and 20 homogenization cycles.
A suspension of 1% PX-13 was prepared in an aqueous preparation of 2% Planta Care 2000. After homogenization applying 20 cycles at 1500 bar, a PCS mean diameter of 33 nm was obtained.

[3] = system: ischemia-reperfusion in the heart; experiment: infarct size after regional ischemia/reperfusion in the heart; assay type: in vivo, Rabbits; details: PX-18 60 mg/kg ip; P<0.05
Procedure: The protective effect of PX-18 during ischemia-reperfusion in the heart was assessed. Since opening of mitochondrial KATP channels are essential components of ischemic tolerance induced by preconditioning in heart, the role of these channels in PX-18-induced cardioprotection was also examined. Briefly, 180 mg of PX-18 was put into a small homogenizing tube containing 3 ml of ethylene glycol in a homogenizing tube and warming it to about 50° C. Several bursts of sonication (about 10 seconds) were applied in a nitrogen gas bath to minimize oxidation, followed by homogenization. This procedure was repeated 4-5 times until a uniform cloudy proportion that was easily injected through a needle was obtained. Procedures of this type generate PX-18 particles of a size in the micrometer range. Rabbits were treated with the sonicated preparation, of PX-18 (60 mg/kg ip). 30 minutes later the hearts were subjected to 30 minutes of regional ischemia followed by 3 hours of reperfusion. Mitochondrial KATP channel blocker 5-hydroxydecanoate (5-HD, 5 mg/kg iv) was given 10 min before ischemia/reperfusion. Infarct size was measured by computer morphometry of tetrazolium stained sections.

pial arterioles = experiment: basal and induced pial arteriolar dilation and hemodynamics; assay type: in vivo, newborn piglets
Procedure: (§1) The ability of PX-18 nanoparticles to influence 1) basal and induced arterial dilation; and 2) ischemia-induced impaired vasodilation (due to bradykinin, N-methyl-D-aspartic acid (NMDA) and ischemia-reperfusion) was studied in newborn piglets (1-2-day old, n=44). The piglets were anesthetized, ventilated, and equipped with arterial and venous catheters and a closed cranial window. Xanoparticulate PX-18 was administered iv at a concentration of 6 mg/kg.

[4] = system: ischemia-induced impaired vasodilation; experiment: ischemia-induced impaired vasodilation; assay type: in vivo, newborn piglets; details: for effect on impaired hypercapnic vasodilation after global ischemia: FIG. 11
Procedure: as §1
The protocol for testing the effect of ischemia-induced impaired vasodilation is preseted in FIG. 8. […] In addition, intravenous but not topical treatment with PX-18 restored impaired hypercapnic vasodilation after global ischemia (FIG. 11).

Rabbits = details: rabbit, in vivo, iv
[5] = system: hippocampus neurons after ischemia; experiment: common carotid artery occlusion, alive hippocampal neurons; assay type: in vivo, Gerbils; details: 1% nanoparticle formulation, 40-50 nm, subcutaneously 5 min, 24 hr and 48 hr after ischemia, day 4
Procedure: Common carotid arteries of Gerbils (6 gerbils per group) were occluded for 5 minutes to induce ischemia. Thereafter, a nanoparticle formulation of PX-18 (1% formulation, particles size of 40-50 nanometers) was administered subcutaneously 5 min, 24 hr and 48 hr after ischemia. After surgery, the gerbils were returned to their cages where, upon awakening, they were able to resume their normal locomotor functions. They were sacrificed on day 4. The hippocampus was sectioned and the number of alive neurons was assessed. In the ischemic animals, sPLA2 unregulated within 24 hr after ischemia and most neurons were dead by 4 days. PX-18 reduced neuronal damage in a dose dependent manner, providing approximately 30% protection at a dose of 30 mg/kg and 45% protection at a dose of 60 mg/kg, […]

[6] = dissolution velocity: amount suspended in water after 5 minutes (gravimetry); assay type: physicochemical
Procedure: 1 ml of macrosuspension (PX powder, dispersed in water) and 1 ml of PX-18 nanosuspension (diameter 40 nm) was added to 9 ml of de-mineralised water and stirred with a magnetic stirrer for 5 minutes. Each 10 ml sample was then filtered to remove non-suspended PX-18, and the amount of suspended PX-18 was determined by gravimetry. While the concentration of PX-18 in both suspensions was 1% (w/w), about 91% of the nanoparticles had become suspended within 5 minutes compared to just 8.4% of the macrosuspension.
To farther assess the importance of nanoparticle size on the dissolution velocity of PX-18, the dissolution velocity of PX-18 nanoparticles with a size of 40 nm was compared to that of PX-18 nanoparticles with a size of 200 nm. The analysis was performed as described above. After 5 minutes, about 91% of the 40 nm particles were suspended, whereas die larger 200 nm nanoparticles were suspended to about 41%.

solubility in solvents = assay type: physicochemical
From the text: PX-18, a specific inhibitor of sPLA2, is a fatty moiety feat is soluble in methylene chloride, chloroform and ethyl acetate. […] Its solubility in water is typically very low.

- solubility in aqueous solutions [1]: about 5 μg/ml
- PCS mean diameter ([2]; 1% PX-13 in aqueous 2% Planta Care 2000, 20 cycles at 1500 bar): 33 nm
- particle size (PCS, z-average) ([2]; one homogenization cycle at 1500 bar): 400-900 nm
Compound: CCCCCCCC/C=C\CCCCCCCC(=O)OCC(COC(=O)CCCCCCC/C=C\CCCCCCCC)(COC(=O)CCCCCCC/C=C\CCCCCCCC)NCCS(=O)(=O)O [PX-13]

Compound: CCCCCCCC/C=C\CCCCCCCC(=O)OCCN(CCOC(=O)CCCCCCC/C=C\CCCCCCCC)CCS(=O)(=O)O [PX-18]
- reduction of infarct size versus vehicle [3]: 43%
- time to normalization of MABP and pial arteriole diameter (pial arterioles; after iv bolus, 6 mg/kg): 4 to 6 min
- effect on basal and hypercapnia-induced (endothelium and COX dependent) pial arterial dilation (pial arterioles; intravenous, FIG. 6): did not influence
- pial arteriole dilation (pial arterioles; iv bolus of nanoparticle formulation, 6 mg/kg, transient): 32±1%
- mean arterial blood pressure (MABP) after bolus (pial arterioles; iv bolus of nanoparticle formulation, 6 mg/kg, transient decrease from 62±7 mmHg): 40±5 mmHg
- pial arteriole dilation (Mean±SEM) (pial arterioles; nanoparticle formulation, 10^−4M, topically onto the brain surface): 16±5%
- effect on PACAP induced (non-endothelium but COX-dependent) pial arteriolar dilation (pial arterioles; topical, FIG. 7): impaired
- solubility in aqueous solutions [1]: approximately 24 μg/ml
- effect on impaired hypercapnic vasodilation after global ischemia ([4]; intravenous treatment): restored
- effect on ischemia-induced impaired vasodilation caused by N-methyl-D-aspartic acid ([4]; iv administered, NMDA 10^−4M, FIG. 10): counteracts
- effect on ischemia-induced impaired vasodilation caused by bradykinin ([4]; iv administered, bradykinin 10^−8M, FIG. 9): counteracts
- effect on impaired hypercapnic vasodilation after global ischemia ([4]; topical treatment): not topical
- survival (Rabbits): did not survive
- protection against neuronal damage ([5]; 30 mg/kg): approximately 30%
- protection against neuronal damage ([5]; 60 mg/kg): ~45%
- amount suspended ([6]; macrosuspension (powder, μm-sized particles), 1% (w/w), 1 ml in 9 ml de-mineralised water, stirred 5 minutes): 8.4%
- amount suspended ([6]; nanoparticles with a size of 200 nm, after 5 minutes): about 41%
- solubility (solubility in solvents; in acetone and methanol): insoluble
- solubility (solubility in solvents; in dimethylsulfoxide (DMSO)): limited solubility
- solubility (solubility in solvents; in methylene chloride, chloroform and ethyl acetate): soluble
- solubility (solubility in solvents; in water): very low

Source: patent publication US20110097410A1, “FORMULATIONS OF PX COMPOUNDS” (priority 2007, published 2011)
